Broadly, the CC50 is the concentration at which the toxic effect on the cells reaches its halfway point. As usually defined, the IC50 is the concentration that gives 50% inhibition. For orientation: Ki means a dissociation constant, usually derived from enzyme kinetics or from competition with a known ligand. As usually defined, the AC50 is the midpoint of the concentration-response curve, whichever way the signal moves. The term EC50 denotes the concentration needed to bring the measured effect to its halfway point.

The nature of experiment [1]: viability loss in THP-1 monocytes – THP-1 cells, cytotoxicity control for Vif-APOBEC3G degradation inhibitor project, dose response (AID 1117359). It counts as functional. To be noted: THP-1.
A further experiment concerns the target Hexokinase HKDC1 (Homo sapiens, UniProt Q2TB90). Kind of experiment: inhibition of HKDC1 glucose phosphorylation – biochemical, W721R variant, dose response (AID 504729). Type of experiment: functional.
The target in experiment [2] is Glutathione-S-transferase (Schistosoma japonicum, UniProt Q26513). In words: GST-antibody interaction or FRET quenching – biochemical, TR-FRET, artefact control for Vif-APOBEC3G degradation inhibitor project, dose response (AID 1117362). It counts as functional. Background: In TR-FRET formats the signal depends on donor and acceptor labels being close together.
Sequence of Glutathione-S-transferase (Q26513 whole entry): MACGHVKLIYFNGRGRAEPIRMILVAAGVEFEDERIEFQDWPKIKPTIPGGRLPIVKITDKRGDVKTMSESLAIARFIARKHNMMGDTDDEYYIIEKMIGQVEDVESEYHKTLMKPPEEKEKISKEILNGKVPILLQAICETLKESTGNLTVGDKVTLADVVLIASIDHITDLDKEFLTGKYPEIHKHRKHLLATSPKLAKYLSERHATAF
The target of experiment [3] is T1, Tyrosine-protein phosphatase non-receptor type 7 (Homo sapiens, UniProt P35236).
T1 sequence (P35236 whole entry): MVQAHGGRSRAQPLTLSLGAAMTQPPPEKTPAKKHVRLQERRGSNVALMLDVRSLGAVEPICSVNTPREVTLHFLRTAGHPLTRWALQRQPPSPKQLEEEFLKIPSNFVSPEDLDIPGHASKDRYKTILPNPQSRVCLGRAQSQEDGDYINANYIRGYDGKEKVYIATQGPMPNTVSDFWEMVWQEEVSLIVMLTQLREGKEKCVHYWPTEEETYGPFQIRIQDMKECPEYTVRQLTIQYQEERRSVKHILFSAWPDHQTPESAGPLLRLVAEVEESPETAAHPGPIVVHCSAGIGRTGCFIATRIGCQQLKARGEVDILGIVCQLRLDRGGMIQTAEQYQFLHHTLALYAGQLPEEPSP
Type of experiment: functional.

Experiment [4] concerns the target T2, Dual specificity protein phosphatase 6 (Rattus norvegicus, UniProt Q64346).
T2 sequence (Q64346 whole entry): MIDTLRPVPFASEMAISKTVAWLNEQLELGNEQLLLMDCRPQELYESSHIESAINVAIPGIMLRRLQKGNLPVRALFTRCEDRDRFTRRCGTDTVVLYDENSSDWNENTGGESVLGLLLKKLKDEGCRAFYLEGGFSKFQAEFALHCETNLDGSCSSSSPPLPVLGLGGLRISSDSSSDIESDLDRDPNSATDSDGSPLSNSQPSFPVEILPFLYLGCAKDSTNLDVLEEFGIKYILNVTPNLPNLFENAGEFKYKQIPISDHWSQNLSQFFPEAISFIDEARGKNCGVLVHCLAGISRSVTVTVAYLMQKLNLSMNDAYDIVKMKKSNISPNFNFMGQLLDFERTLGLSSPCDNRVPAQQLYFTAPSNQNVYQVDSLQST

The target of experiment [5] is Glyceraldehyde-3-phosphate dehydrogenase (Homo sapiens, UniProt P04406).
Sequence of Glyceraldehyde-3-phosphate dehydrogenase (P04406 whole entry): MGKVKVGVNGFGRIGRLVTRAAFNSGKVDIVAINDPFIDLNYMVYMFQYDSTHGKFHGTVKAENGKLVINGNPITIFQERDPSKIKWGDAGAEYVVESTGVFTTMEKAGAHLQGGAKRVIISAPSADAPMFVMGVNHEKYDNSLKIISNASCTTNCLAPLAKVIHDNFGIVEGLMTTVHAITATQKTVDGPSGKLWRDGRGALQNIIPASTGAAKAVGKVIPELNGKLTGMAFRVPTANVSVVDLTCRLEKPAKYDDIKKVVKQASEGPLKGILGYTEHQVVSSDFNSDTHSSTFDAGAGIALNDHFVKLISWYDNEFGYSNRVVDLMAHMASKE
Experiment [6] has as its target T2, Dual specificity protein phosphatase 6. It counts as functional.
Experiment [7] concerns the target Dual specificity protein phosphatase 3 (Homo sapiens, UniProt P51452). Kind of experiment: inhibition constants for human DUSP3 – biochemical, colorimetric, SAR follow-up (AID 2004).
The target of experiment [8] is T3, Sentrin-specific protease 8 (Homo sapiens, UniProt Q96LD8).
T3 sequence (Q96LD8 whole entry): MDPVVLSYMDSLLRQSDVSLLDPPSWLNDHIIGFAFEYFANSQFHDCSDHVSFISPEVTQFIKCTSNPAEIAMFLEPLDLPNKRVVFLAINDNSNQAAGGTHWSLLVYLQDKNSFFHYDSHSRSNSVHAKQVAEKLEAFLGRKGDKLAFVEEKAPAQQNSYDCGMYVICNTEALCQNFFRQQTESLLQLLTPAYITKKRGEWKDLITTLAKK
It counts as functional.

Experiment [9] concerns the target T4, Fibrinogen beta chain (Homo sapiens, UniProt P02675). In words: Fluorescence polarization-based biochemical high throughput dose response assay to identify inhibitors that disrupt the binding of a cyclic peptide (Tn7) to the fibrin proteolytic product D-Dimer and fragment E complex [DD(E )]. Background: In fluorescence polarisation assays a small probe gives low polarisation when free and higher when bound to something large.

For the next experiment, the target named is 14-3-3 protein gamma (Homo sapiens, UniProt P61981). Kind of experiment: modulators of 14-3-3 gamma client binding – dose response (AID 711). It counts as functional.
Sequence of 14-3-3 protein gamma (P61981 whole entry): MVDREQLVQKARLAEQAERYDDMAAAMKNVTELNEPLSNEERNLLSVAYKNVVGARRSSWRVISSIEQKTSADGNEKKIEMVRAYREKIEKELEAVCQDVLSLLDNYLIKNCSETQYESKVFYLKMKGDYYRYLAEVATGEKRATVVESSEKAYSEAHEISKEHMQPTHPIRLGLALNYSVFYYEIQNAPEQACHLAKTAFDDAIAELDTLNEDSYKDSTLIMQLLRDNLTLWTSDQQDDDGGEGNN
Experiment [10] deals with T5, Tyrosyl-DNA phosphodiesterase 2 (Homo sapiens, UniProt O95551).
T5 sequence (O95551 whole entry): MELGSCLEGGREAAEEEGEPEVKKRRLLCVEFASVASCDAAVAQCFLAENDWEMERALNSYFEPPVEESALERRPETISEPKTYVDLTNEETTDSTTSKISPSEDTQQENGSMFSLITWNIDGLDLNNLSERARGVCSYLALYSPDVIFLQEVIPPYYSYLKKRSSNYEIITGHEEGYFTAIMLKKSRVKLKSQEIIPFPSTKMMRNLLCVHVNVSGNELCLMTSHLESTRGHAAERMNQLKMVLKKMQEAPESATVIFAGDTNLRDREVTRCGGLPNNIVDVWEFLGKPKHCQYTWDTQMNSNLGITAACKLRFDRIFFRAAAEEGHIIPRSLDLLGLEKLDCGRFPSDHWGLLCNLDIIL
In words: potency against TDP2 phosphodiesterase activity – biochemical, epi absorbance, IC50, dose response (AID 743297).

In the next experiment the test system is HeLa. In words: viability loss in HeLa cells – cell-based, 24 h, cherry-picked samples, cytotoxicity control, dose response (AID 504726).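 Further: potency for cytotoxicity as loss of luminescence signal.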 It counts as functional. As to conditions: Homo sapiens.
The target in experiment [11] is T6, Replicative DNA helicase DnaB (Mycobacterium tuberculosis, UniProt P9WMR3).
T6 sequence (P9WMR3 whole entry): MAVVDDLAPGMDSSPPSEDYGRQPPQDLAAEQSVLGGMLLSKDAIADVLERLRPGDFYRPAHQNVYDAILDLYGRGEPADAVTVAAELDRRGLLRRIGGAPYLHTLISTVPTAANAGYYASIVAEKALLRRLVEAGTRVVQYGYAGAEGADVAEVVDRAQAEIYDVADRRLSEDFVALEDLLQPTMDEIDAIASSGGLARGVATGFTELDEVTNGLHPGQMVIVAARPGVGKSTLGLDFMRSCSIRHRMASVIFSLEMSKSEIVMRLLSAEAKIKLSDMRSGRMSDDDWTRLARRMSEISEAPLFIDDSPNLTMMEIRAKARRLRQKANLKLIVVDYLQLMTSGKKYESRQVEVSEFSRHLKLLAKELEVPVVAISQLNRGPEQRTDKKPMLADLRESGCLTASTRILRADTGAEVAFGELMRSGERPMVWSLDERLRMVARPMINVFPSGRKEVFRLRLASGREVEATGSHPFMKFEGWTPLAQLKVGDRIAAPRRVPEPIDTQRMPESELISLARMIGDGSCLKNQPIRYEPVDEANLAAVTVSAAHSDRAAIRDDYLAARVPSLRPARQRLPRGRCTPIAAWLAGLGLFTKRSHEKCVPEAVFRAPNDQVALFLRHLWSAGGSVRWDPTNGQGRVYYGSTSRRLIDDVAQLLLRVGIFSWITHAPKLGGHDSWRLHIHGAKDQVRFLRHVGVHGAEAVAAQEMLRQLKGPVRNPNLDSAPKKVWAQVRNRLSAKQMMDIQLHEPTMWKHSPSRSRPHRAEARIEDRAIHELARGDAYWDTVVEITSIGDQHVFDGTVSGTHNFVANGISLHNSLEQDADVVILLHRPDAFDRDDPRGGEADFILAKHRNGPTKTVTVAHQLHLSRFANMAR
In words: DnaB intein splicing inhibitors, dose response, biochemical, cell-free fluorescence (AID 449749). It counts as functional.

Experiment [12] addresses T3, Sentrin-specific protease 8. Type of experiment: functional. This is another data set of the same source.
Experiment [13] addresses T4, Fibrinogen beta chain. In words: Fluorescence polarization-based biochemical high throughput dose response assay to identify inhibitors that disrupt the binding of a cyclic peptide (Tn6) to the fibrin proteolytic product D-Dimer and fragment E complex [DD(E )].
The target of experiment [14] is Histone-lysine N-methyltransferase NSD2 (Homo sapiens, UniProt O96028). It counts as biochemical.
Sequence of Histone-lysine N-methyltransferase NSD2 (O96028 whole entry): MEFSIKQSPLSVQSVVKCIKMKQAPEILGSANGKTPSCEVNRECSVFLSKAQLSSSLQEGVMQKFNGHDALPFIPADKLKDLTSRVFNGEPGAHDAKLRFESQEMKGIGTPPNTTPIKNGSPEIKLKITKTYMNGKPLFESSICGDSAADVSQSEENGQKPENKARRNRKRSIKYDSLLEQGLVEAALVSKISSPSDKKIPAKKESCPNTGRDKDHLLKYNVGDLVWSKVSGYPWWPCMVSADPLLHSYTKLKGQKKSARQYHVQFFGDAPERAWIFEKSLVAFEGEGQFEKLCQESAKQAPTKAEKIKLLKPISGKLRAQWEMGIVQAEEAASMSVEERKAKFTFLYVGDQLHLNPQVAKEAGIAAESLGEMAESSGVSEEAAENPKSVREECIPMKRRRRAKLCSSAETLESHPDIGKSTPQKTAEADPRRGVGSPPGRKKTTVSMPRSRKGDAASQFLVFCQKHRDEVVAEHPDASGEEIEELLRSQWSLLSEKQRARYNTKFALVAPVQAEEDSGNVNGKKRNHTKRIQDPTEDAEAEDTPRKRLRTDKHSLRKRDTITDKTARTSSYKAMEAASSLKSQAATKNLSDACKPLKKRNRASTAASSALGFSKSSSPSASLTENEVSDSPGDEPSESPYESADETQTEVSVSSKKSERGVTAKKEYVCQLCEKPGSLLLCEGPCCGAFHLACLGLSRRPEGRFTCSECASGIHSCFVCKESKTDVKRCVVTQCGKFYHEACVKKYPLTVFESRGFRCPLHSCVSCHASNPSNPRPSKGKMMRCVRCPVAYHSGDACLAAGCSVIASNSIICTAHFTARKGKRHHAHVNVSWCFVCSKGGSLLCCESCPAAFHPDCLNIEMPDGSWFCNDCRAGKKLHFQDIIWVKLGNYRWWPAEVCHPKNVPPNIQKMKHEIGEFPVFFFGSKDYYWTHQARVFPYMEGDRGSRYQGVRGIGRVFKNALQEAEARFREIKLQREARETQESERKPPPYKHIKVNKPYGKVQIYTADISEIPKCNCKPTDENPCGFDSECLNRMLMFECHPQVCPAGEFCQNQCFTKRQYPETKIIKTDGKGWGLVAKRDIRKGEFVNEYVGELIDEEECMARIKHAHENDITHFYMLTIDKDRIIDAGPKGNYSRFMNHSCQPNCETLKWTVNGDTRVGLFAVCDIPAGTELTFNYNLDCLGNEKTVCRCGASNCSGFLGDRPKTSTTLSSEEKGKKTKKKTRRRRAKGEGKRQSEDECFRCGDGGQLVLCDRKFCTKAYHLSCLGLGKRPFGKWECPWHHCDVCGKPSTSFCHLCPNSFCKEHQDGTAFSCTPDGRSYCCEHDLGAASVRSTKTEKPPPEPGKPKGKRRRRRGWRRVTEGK
The target in another experiment is T7, Protein RecA (Mycobacterium tuberculosis, UniProt P9WHJ3).
T7 sequence (P9WHJ3 whole entry): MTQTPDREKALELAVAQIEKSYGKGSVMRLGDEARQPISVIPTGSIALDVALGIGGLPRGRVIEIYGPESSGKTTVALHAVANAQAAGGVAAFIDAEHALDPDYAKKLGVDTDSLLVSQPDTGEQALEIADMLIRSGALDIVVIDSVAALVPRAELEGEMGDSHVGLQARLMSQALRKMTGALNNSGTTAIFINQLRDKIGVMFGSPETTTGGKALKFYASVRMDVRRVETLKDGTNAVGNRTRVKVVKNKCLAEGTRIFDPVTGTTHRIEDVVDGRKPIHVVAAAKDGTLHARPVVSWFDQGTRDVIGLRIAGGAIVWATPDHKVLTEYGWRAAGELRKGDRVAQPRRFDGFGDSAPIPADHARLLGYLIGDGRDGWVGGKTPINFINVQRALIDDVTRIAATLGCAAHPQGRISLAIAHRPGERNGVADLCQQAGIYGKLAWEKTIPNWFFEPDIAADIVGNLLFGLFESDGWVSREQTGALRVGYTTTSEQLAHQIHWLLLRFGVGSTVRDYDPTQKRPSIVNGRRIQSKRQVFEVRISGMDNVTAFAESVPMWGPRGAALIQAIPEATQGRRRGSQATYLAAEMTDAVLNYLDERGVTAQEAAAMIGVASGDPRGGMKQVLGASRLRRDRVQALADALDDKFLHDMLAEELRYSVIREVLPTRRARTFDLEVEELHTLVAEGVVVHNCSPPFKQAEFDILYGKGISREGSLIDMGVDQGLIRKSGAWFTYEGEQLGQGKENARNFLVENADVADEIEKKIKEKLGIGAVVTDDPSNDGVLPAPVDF
Kind of experiment: Fluorescence Cell-Free Homogeneous Dose Retest to Identify Inhibitors of RecA-Intein Splicing Activity. [Related pubchem assays (depositor defined):AID2097, AID2223, AID489010, AID492950]. Type of experiment: functional.

For the next experiment, the target named is Beta-galactosidase (Escherichia coli, UniProt Q8VNN2). In words: detection-enzyme interference by beta-gal modulators – biochemical, E. coli enzyme, set 3, artefact control for CCR6 antagonist project, dose response (AID 504712). It counts as functional.
Experiment [15] concerns the target C-C chemokine receptor type 6 (Homo sapiens, UniProt P51684). Kind of experiment: antagonism of CCR6 beta-arrestin recruitment – cell-based, luminescent beta-arrestin readout, dose response (AID 504728). Type of experiment: functional.

Active and inactive are the calls of the source. A value given as a limit tells only on which side of the number the result lay.

T4 sequence (P02675 whole entry, the tested form may be a part): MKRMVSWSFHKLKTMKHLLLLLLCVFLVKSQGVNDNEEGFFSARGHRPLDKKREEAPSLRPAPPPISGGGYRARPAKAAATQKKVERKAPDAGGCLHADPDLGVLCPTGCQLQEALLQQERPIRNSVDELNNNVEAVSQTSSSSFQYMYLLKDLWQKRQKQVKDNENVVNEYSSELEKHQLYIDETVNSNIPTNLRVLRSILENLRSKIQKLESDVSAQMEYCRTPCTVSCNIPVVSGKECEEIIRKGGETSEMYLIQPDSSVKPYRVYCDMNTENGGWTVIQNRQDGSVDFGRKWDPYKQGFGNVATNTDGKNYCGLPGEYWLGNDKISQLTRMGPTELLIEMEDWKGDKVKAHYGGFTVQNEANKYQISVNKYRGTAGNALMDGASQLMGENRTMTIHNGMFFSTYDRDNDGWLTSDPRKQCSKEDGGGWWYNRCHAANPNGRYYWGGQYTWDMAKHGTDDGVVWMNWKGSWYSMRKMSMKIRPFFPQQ
Sequence of C-C chemokine receptor type 6 (P51684 whole entry): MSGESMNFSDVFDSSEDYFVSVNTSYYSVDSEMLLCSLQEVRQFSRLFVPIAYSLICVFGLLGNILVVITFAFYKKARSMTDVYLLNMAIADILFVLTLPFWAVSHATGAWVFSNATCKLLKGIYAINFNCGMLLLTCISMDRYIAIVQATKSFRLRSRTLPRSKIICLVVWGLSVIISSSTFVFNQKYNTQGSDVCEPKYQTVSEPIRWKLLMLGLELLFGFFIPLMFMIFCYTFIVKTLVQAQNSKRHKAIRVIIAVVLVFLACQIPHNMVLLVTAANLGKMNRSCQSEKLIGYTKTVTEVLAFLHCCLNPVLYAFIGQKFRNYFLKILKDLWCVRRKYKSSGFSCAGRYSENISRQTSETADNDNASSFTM
Sequence of Dual specificity protein phosphatase 3 (P51452 whole entry): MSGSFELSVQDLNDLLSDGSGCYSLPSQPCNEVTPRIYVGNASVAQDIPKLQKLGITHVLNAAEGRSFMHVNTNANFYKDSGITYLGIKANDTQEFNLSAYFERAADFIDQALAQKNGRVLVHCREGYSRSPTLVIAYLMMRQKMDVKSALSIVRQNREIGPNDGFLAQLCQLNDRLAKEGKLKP
Sequence of Hexokinase HKDC1 (Q2TB90 whole entry): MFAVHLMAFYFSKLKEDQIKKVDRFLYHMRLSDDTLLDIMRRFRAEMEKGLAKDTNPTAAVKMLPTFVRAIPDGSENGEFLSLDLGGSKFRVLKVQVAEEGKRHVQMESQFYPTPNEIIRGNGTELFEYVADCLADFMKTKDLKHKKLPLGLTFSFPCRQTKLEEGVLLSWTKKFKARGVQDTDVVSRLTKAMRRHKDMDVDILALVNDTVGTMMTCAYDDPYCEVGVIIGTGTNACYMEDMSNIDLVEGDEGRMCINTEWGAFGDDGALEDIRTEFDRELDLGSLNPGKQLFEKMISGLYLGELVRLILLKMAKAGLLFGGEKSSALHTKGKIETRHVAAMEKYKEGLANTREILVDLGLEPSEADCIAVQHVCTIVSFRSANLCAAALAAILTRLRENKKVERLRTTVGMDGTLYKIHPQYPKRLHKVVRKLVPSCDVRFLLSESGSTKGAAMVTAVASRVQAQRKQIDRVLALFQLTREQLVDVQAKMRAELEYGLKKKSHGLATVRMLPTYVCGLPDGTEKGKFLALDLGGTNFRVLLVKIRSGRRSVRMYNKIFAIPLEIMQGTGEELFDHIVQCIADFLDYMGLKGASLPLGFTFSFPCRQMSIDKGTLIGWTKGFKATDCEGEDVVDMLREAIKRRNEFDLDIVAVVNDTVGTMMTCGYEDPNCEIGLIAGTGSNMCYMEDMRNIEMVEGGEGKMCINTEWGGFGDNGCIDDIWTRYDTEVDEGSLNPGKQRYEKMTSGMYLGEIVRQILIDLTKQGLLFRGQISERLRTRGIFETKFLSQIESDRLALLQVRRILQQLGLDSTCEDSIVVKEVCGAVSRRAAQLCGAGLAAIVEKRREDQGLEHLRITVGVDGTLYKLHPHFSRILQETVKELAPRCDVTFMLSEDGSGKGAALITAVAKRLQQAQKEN

Take `O=C1C(CO)=C(CO)C(=O)c2c(O)ccc(O)c21`: the CC50 in [1] was 25.3 µM (active). Also, the IC50 at Hexokinase HKDC1 is 15.2 µM (active); in experiment [2] it was > 100 µM (active).
As to `Cc1cc(NC(=O)c2cccs2)no1`, the IC50 in [3] was > 100 µM (not active); in experiment [4] it was > 100 µM (inactive); in experiment [5], 50.1 µM (active); in [6], > 100 µM (inactive).
On to `O=C1/C(=C\c2ccc(-c3cccc(Cl)c3)o2)SC(=S)N1CCS(=O)(=O)O`, for which the Ki in [7] is 3.13 µM (active).
In the case of `Cc1cc2c(N)cccc2nn1`, the IC50 was 6 µM (active) in [8]; > 83.3 µM (inactive) on Fibrinogen beta chain [9]; > 50 µM (not active) on 14-3-3 protein gamma; 27.2 µM (inactive) in experiment [10]; 2.14 µM (active) in experiment [12]; > 83.3 µM (inactive) at Fibrinogen beta chain [13]. Moreover, the IC50 in experiment [2] is 52.6 µM (active). The AC50 with HeLa was > 350 µM (inactive); in experiment [11] it was > 380 µM (inactive); in experiment [14] it was 4.77 µM (active). For the same compound, the EC50 on Protein RecA is 54.6 µM (active).
With `CCN1CCC(O)(/C=C/c2ccc(C)cc2)C(C(=O)/C=C/c2ccc(C)cc2)C1` (stereo unspecified), the IC50 was > 66.6 µM (inactive) on Beta-galactosidase and 22.8 µM (inactive) in experiment [15].

For the origin of these results see ChEMBL document CHEMBL1201862, “PubChem BioAssay data set” (2004).
